How the values were obtained:
Assay type in all cases: cell-based
[1] = test system: pathogens of clinical samples; test: Molecular phenotypic antimicrobial susceptibility test of clinical samples, extraction DNA purification step prior to PCR (Table 6)
Experimental: (§1) Detection of Molecular Phenotypic Antimicrobial Susceptibility. Disclosed herein are the methods for the detection of phenotypic antimicrobial susceptibility via molecular methods. The present invention describes how a specimen 100 with a known microbial load is incubated and then exposed to a panel of antimicrobial agents to determine sensitivity (prevention of growth) or resistance (allowance of growth) to the specific antimicrobial agents tested utilizing molecular methods.
(§2) Sample Collection. Specimens 100 are collected from patients using sterile collection processes that are employed in routine clinical care. Specimens are transported to the testing facility in boric acid preservative.
(§3) Preparation of the Specimens for Testing. […] The process for pathogen isolation includes steps of harvesting the pathogen (e.g., via centrifugation), isolating pathogen DNA via a DNA isolation and/or purification kit, and performing PCR on the pathogen DNA via PCR components (e.g., primers, enzymes, buffers) as would be known to the skilled artisan. […] This aliquot is used for antimicrobial susceptibility testing if indicated based on the pathogen detection results. […] Specimens 100 with lower pathogen loads could also be utilized in the antibiotic susceptibility phase of testing with or without a longer incubation period.
(§4) Preparation of Antimicrobial Susceptibility Testing Plates. Antimicrobial solutions are prepared at known concentrations. The specific antimicrobials and their concentrations are selected based on the pathogen of interest and the described antimicrobial resistance breakpoints for that specimen pathogen and antimicrobial combination. These antimicrobials have been selected based on those commonly utilized by healthcare providers in routine clinical care for the specific type of suspected infection. The number and types of antimicrobials utilized can be customized based on the infection source, pathogen detected, patient-specific factors such as allergies or other health conditions (e.g., chronic kidney disease or concurrent medication use), or healthcare provider preferences such as antimicrobial availability or cost.
(§5) The antimicrobial solutions are prepared in liquid culture media (such as Muller Hinton Broth) to achieve the desired antimicrobial concentration and are then stored at −80° C. until use. For a given specimen, each antimicrobial is tested at a single or multiple antimicrobial concentration(s) which is its established breakpoints for sensitivity. The antimicrobial solutions are prepared and plated out for each specific pathogen. […] This allows for evaluation of pathogen load when no antimicrobial is present.
(§6) Specimen Exposure to Antimicrobial Agents. The 1 mL aliquot of the specimen 100 previously mixed with culture media and incubated is obtained. Using optical density measurements as a guide, the specimen 100 is diluted to 0.5 McFarland.
(§7) Antimicrobial exposure plates are typically placed into an incubator for 12-16 hours.
(§8) Nucleic Acid Amplification of Antimicrobial Agent Exposed Pathogens. The antimicrobial exposure plate is removed after the period of incubation. The specimen then undergoes a purification or lysis step. For example, the specimen may undergo a purification step (e.g., magnetic bead-based or other separation protocol to isolate genetic material). In another example, the specimen may undergo a cell lysis step. For example, buffer (e.g., lysis buffer) may be added and incubated in the thermal cycler for preparation for direct PCR. Next, the specimen may undergo a polymerase chain reaction (PCR) testing protocol, whereby a semi-quantitative PCR method is utilized. This may be completed either with or without a specific extraction protocol step. The pathogens can be individually targeted and detected, or a universal genetic sequence can be utilized to detect the antimicrobial susceptibility of the specimen as a whole.

[2] = test system: pathogens of clinical samples; test: Molecular phenotypic antimicrobial susceptibility test of clinical samples, direct PCR without a separate DNA purification step (Table 6)
Experimental: as §1, §2, §3, §4, §5, §6, §7, §8

[3] = test system: Escherichia coli; test: Molecular phenotypic antimicrobial susceptibility test (extraction or DNA purification prior to PCR)
Experimental: as §1, §2, §3, §4, §5, §6, §7, §8

[4] = E. coli, clinical sample of r10-r24
[5] = E. coli, clinical sample of r158-r172
[6] = E. faecalis, clinical sample of r93-r99
[7] = E. faecalis, clinical sample of r114-r120
[8] = E. faecalis, clinical sample of r151-r157
[9] = K. aerogenes, clinical sample of r136-r150
[10] = K. pneumoniae, clinical sample of r121-r135
[11] = M. morganii, clinical sample of r55-r69
[12] = M. morganii, clinical sample of r70-r84
[13] = P. mirabilis, clinical sample of r25-r39
[14] = P. mirabilis, clinical sample of r40-r54
[15] = S. aureus, clinical sample of r85-r92

Structure (SMILES): C[C@H]1COc2c(N3CCN(C)CC3)c(F)cc3c(=O)c(C(=O)O)cn1c23 [Levofloxacin]
- Molecular Antibiotic Susceptibility Result [1, 4]: Resistant
- Ct ([1]; E. coli, clinical sample of r10-r24, Ct Control Avg 18.112): 17.903
- Molecular Antibiotic Susceptibility Result [1, 5]: Sensitive (Antimicrobial wells with pathogen load detected below the control wells (typically >2 cycle thresholds later) may be reported as Sensitive)
- Ct ([1]; E. coli, clinical sample of r158-r172, Ct Control Avg 20.146): 34.012
- Molecular Antibiotic Susceptibility Result [1, 6]: Sensitive (Antimicrobial wells with pathogen load detected below the control wells (typically >2 cycle thresholds later) may be reported as Sensitive)
- Ct ([1]; E. faecalis, clinical sample of r93-r99, Ct Control Avg 22.987): 37.857
- Ct ([1]; E. faecalis, clinical sample of r100-r106, Ct Control Avg 23.073): 38.337
- Ct ([1]; E. faecalis, clinical sample of r107-r113, Ct Control Avg 22.144): 29.347
- Molecular Antibiotic Susceptibility Result [1, 7]: Sensitive (Antimicrobial wells with pathogen load detected below the control wells (typically >2 cycle thresholds later) may be reported as Sensitive)
- Ct ([1]; E. faecalis, clinical sample of r114-r120, Ct Control Avg 20.822): 32.971
- Molecular Antibiotic Susceptibility Result [1, 8]: Sensitive (Antimicrobial wells with pathogen load detected below the control wells (typically >2 cycle thresholds later) may be reported as Sensitive)
- Ct ([1]; E. faecalis, clinical sample of r151-r157, Ct Control Avg 20.56): 37.926
- Molecular Antibiotic Susceptibility Result [1, 9]: Sensitive (Antimicrobial wells with pathogen load detected below the control wells (typically >2 cycle thresholds later) may be reported as Sensitive)
- Ct ([1]; K. aerogenes, clinical sample of r136-r150, Ct Control Avg 19.994): 38.019
- Molecular Antibiotic Susceptibility Result [1, 10]: Sensitive (Antimicrobial wells with pathogen load detected below the control wells (typically >2 cycle thresholds later) may be reported as Sensitive)
- Ct ([1]; K. pneumoniae, clinical sample of r121-r135, Ct Control Avg 24.272): 34.466
- Molecular Antibiotic Susceptibility Result [1, 11]: Sensitive (Antimicrobial wells with pathogen load detected below the control wells (typically >2 cycle thresholds later) may be reported as Sensitive)
- Molecular Antibiotic Susceptibility Result [1, 12]: Sensitive (Antimicrobial wells with pathogen load detected below the control wells (typically >2 cycle thresholds later) may be reported as Sensitive)
- Ct ([1]; M. morganii, clinical sample of r70-r84, Ct Control Avg 27.053): 37.67
- Molecular Antibiotic Susceptibility Result [1, 13]: Sensitive (Antimicrobial wells with pathogen load detected below the control wells (typically >2 cycle thresholds later) may be reported as Sensitive)
- Ct ([1]; P. mirabilis, clinical sample of r25-r39, Ct Control Avg 26.064): 33.029
- Molecular Antibiotic Susceptibility Result [1, 14]: Sensitive (Antimicrobial wells with pathogen load detected below the control wells (typically >2 cycle thresholds later) may be reported as Sensitive)
- Ct ([1]; P. mirabilis, clinical sample of r40-r54, Ct Control Avg 26.987): 33.384
- Molecular Antibiotic Susceptibility Result [1, 15]: Resistant
- Ct ([1]; S. aureus, clinical sample of r85-r92, Ct Control Avg 24.32): 19.106
- Molecular Antibiotic Susceptibility Result [2, 4]: Resistant
- Ct ([2]; E. coli, clinical sample of r10-r24, Ct control avg 12.97): 12.289
- Molecular Antibiotic Susceptibility Result [2, 5]: Sensitive (Antimicrobial wells with pathogen load detected below the control wells (typically >2 cycle thresholds later) may be reported as Sensitive)
- Ct ([2]; E. coli, clinical sample of r158-r172, Ct control avg 12.894): 29.603
- Molecular Antibiotic Susceptibility Result [2, 6]: Sensitive (Antimicrobial wells with pathogen load detected below the control wells (typically >2 cycle thresholds later) may be reported as Sensitive)
- Ct ([2]; E. faecalis, clinical sample of r93-r99, Ct control avg 22.011): 33.342
- Ct ([2]; E. faecalis, clinical sample of r100-r106, Ct control avg 21.027): 34.507
- Ct ([2]; E. faecalis, clinical sample of r107-r113, Ct control avg 20.529): 28.107
- Molecular Antibiotic Susceptibility Result [2, 7]: Sensitive (Antimicrobial wells with pathogen load detected below the control wells (typically >2 cycle thresholds later) may be reported as Sensitive)
- Ct ([2]; E. faecalis, clinical sample of r114-r120, Ct control avg 20.909): 30.072
- Molecular Antibiotic Susceptibility Result [2, 8]: Sensitive (Antimicrobial wells with pathogen load detected below the control wells (typically >2 cycle thresholds later) may be reported as Sensitive)
- Ct ([2]; E. faecalis, clinical sample of r151-r157, Ct control avg 18.551): 35.719
- Molecular Antibiotic Susceptibility Result [2, 9]: Sensitive (Antimicrobial wells with pathogen load detected below the control wells (typically >2 cycle thresholds later) may be reported as Sensitive)
- Ct ([2]; K. aerogenes, clinical sample of r136-r150, Ct control avg 13.854): 33.354
- Molecular Antibiotic Susceptibility Result [2, 10]: Sensitive (Antimicrobial wells with pathogen load detected below the control wells (typically >2 cycle thresholds later) may be reported as Sensitive)
- Ct ([2]; K. pneumoniae, clinical sample of r121-r135, Ct control avg […]): 32.085
- Molecular Antibiotic Susceptibility Result [2, 11]: Sensitive (Antimicrobial wells with pathogen load detected below the control wells (typically >2 cycle thresholds later) may be reported as Sensitive)
- Molecular Antibiotic Susceptibility Result [2, 12]: Sensitive (Antimicrobial wells with pathogen load detected below the control wells (typically >2 cycle thresholds later) may be reported as Sensitive)
- Ct ([2]; M. morganii, clinical sample of r70-r84, Ct control avg 11.677): 29.614
- Molecular Antibiotic Susceptibility Result [2, 13]: Sensitive (Antimicrobial wells with pathogen load detected below the control wells (typically >2 cycle thresholds later) may be reported as Sensitive)
- Ct ([2]; P. mirabilis, clinical sample of r25-r39, Ct control avg 11.801): 25.775
- Molecular Antibiotic Susceptibility Result [2, 14]: Sensitive (Antimicrobial wells with pathogen load detected below the control wells (typically >2 cycle thresholds later) may be reported as Sensitive)
- Ct ([2]; P. mirabilis, clinical sample of r40-r54, Ct control avg 10.06): 30.018
- Molecular Antibiotic Susceptibility Result [2, 15]: Resistant
- Ct ([2]; S. aureus, clinical sample of r85-r92, Ct control avg 20.309): 16.32
- Ct at Sensitive Breakpoint ([3]; E. coli isolate 1, Ct at control (average) 21.238): 20.768
- Molecular Antimicrobial Susceptibility Result ([3]; E. coli isolate 1, at sensitive breakpoint): Resistant
- Ct at Sensitive Breakpoint ([3]; E. coli isolate 2, Ct at control (average) 21.270): 19.100
- Molecular Antimicrobial Susceptibility Result ([3]; E. coli isolate 2, at sensitive breakpoint): Resistant
- Ct at Sensitive Breakpoint ([3]; E. coli isolate 3, Ct at control (average) 22.0995): 29.342
- Molecular Antimicrobial Susceptibility Result ([3]; E. coli isolate 3, at sensitive breakpoint): Resistant
- Ct at Sensitive Breakpoint ([3]; E. coli isolate 4, Ct at control (average) 17.5733): 17.88
- Molecular Antimicrobial Susceptibility Result ([3]; E. coli isolate 4, at sensitive breakpoint): Resistant
- Ct at Sensitive Breakpoint ([3]; E. coli isolate 5, Ct at control (average) 21.0933): 33.85
- Molecular Antimicrobial Susceptibility Result ([3]; E. coli isolate 5, at sensitive breakpoint): Sensitive (Antimicrobial wells with pathogen load detected below the control wells (typically >2 cycle thresholds later) may be reported as Sensitive)

— patent publication US20250290117A1, “MOLECULAR PHENOTYPIC ANTIMICROBIAL SUSCEPTIBILITY TESTING” (priority 2024, published 2025)
